# In publication PMC4020900 (International Journal of Nanomedicine, 2014):
# Key:
# Caco-2 cells [1] = assay: Stability and metabolism on incubation with Caco-2 cells; assay type: in vitro ADME, human; conditions: 100 μg/mL, incubated with Caco-2 cells, pH 7.4 HBSS, 10 mM ascorbic acid, 37°C, 6 hours
# Caco-2 cells [2] = assay: Cellular uptake of FITC-conjugated drugs and their niosomes by Caco-2 cells; assay type: in vitro ADME, human; conditions: 100 μg/mL, 37°C, 6 hours incubation, n=3
# [3] = stated in the introduction, method and reference not given; cited from earlier work
# Caco-2 cells [4] = assay: SRB cytotoxicity assay; assay type: cell-based; conditions: Homo sapiens, Caco-2, 24 h, read-out: IC50 (SRB assay)
# [5] = Stability in pH 7.4 HBSS buffer with ascorbic acid; assay type: physicochemical; conditions: 100 μg/mL, 10 mM ascorbic acid, 37°C, 6 hours
smiles,measurement,setting,value
"O=C(O[C@@H]1Cc2c(O)cc(O)cc2O[C@@H]1c1cc(O)c(O)c(O)c1)c1cc(O)c(O)c(O)c1 [EGCG, (−)-epigallocatechin gallate]",Decrease of drug,Caco-2 cells [1],13.0%
same,Uptake ± SD,Caco-2 cells [2],0.90±0.14 μg/mg protein
same,Octanol/buffer partition coefficient P,[3],0.86±0.03
same,IC50,Caco-2 cells [4],125 ± 3.3 µg/mL
same,Drug present and unchanged,[5],86.2%
